Assay results: the CheMixHub viscosity set

Test: xn = mol fraction of the nth substance listed

ClC(Cl)Cl + CO
viscosity [mPa·s]
Conditions | 101 kPa | 101.3 kPa
303 K, x1 = 0.096 | – | 0.5644
303 K, x1 = 0.1963 | – | 0.6289
303 K, x1 = 0.2971 | – | 0.6315
303 K, x1 = 0.4963 | – | 0.5872
303 K, x1 = 0.6952 | – | 0.5447
303 K, x1 = 0.9092 | – | 0.5211
303.15 K, x1 = 0.0499 | 0.59 | –
303.15 K, x1 = 0.1326 | 0.642 | –
303.15 K, x1 = 0.3228 | 0.653 | –
303.15 K, x1 = 0.4234 | 0.634 | –
303.15 K, x1 = 0.5123 | 0.621 | –
303.15 K, x1 = 0.6981 | 0.608 | –
303.15 K, x1 = 0.8262 | 0.61 | –
303.15 K, x2 = 0.0625 | 0.509 | 0.509
303.15 K, x2 = 0.0947 | 0.5084 | 0.5084
303.15 K, x2 = 0.1406 | 0.5099 | 0.5099
303.15 K, x2 = 0.183 | 0.5138 | 0.5138
303.15 K, x2 = 0.2165 | 0.5168 | 0.5168
303.15 K, x2 = 0.3004 | 0.5296 | 0.5296
303.15 K, x2 = 0.3311 | 0.5343 | 0.5343
303.15 K, x2 = 0.3671 | 0.5424 | 0.5424
303.15 K, x2 = 0.3854 | 0.546 | 0.546
303.15 K, x2 = 0.4503 | 0.5601 | 0.5601
303.15 K, x2 = 0.5306 | 0.5764 | 0.5764
303.15 K, x2 = 0.615 | 0.5904 | 0.5904
303.15 K, x2 = 0.7056 | 0.5975 | 0.5975
303.15 K, x2 = 0.743 | 0.5962 | 0.5962
303.15 K, x2 = 0.8147 | 0.5864 | 0.5864
303.15 K, x2 = 0.8944 | 0.5613 | 0.5613
303.15 K, x2 = 0.9355 | 0.5417 | 0.5417
303.15 K, x2 = 0.961 | 0.5281 | 0.5281
311 K, x1 = 0.096 | – | 0.5043
311 K, x1 = 0.1963 | – | 0.5549
311 K, x1 = 0.2971 | – | 0.5593
311 K, x1 = 0.4963 | – | 0.5271
311 K, x1 = 0.6952 | – | 0.4971
311 K, x1 = 0.9092 | – | 0.4822
313.15 K, x1 = 0.0499 | 0.527 | –
313.15 K, x1 = 0.1326 | 0.557 | –
313.15 K, x1 = 0.3228 | 0.566 | –
313.15 K, x1 = 0.4234 | 0.554 | –
313.15 K, x1 = 0.5123 | 0.549 | –
313.15 K, x1 = 0.6981 | 0.545 | –
313.15 K, x1 = 0.8262 | 0.55 | –
319 K, x1 = 0.096 | – | 0.4586
319 K, x1 = 0.1963 | – | 0.4932
319 K, x1 = 0.2971 | – | 0.5022
319 K, x1 = 0.4963 | – | 0.4779
319 K, x1 = 0.6952 | – | 0.4574
319 K, x1 = 0.9092 | – | 0.4489
323.15 K, x1 = 0.0499 | 0.439 | –
323.15 K, x1 = 0.1326 | 0.448 | –
323.15 K, x1 = 0.3228 | 0.451 | –
323.15 K, x1 = 0.4234 | 0.468 | –
323.15 K, x1 = 0.5123 | 0.474 | –
323.15 K, x1 = 0.6981 | 0.482 | –
323.15 K, x1 = 0.8262 | 0.496 | –
